These results are taken from patent US20260184691A1, “INHIBITORS AND DEGRADERS OF PIP4K PROTEIN” (Larkspur Biosciences, Inc., priority 2022, published 2026).

For orientation: IC50 means the concentration at which inhibition is half-maximal.

For this test, the target named is T1, Human PIP4K2C (Homo sapiens, UniProt Q8TBX8).
T1 construct: purchased Eurofins DiscoverX 87-0007-1094
T1 sequence (Q8TBX8 1-421): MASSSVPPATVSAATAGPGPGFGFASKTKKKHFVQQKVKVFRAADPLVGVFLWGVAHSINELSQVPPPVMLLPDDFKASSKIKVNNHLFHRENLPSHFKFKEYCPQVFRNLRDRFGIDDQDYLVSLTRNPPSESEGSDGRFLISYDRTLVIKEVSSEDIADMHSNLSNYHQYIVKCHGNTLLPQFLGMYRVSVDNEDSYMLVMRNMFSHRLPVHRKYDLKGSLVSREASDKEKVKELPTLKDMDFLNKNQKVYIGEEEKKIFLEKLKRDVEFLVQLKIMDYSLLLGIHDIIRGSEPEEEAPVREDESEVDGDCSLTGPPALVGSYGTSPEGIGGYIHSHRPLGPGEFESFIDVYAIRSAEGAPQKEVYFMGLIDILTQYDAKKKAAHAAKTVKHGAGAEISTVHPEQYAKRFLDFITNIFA
Put plainly: Enzyme binding assay (KINOMEscan), active site-directed competition binding. The following applies: 11-point dose response, duplicate, top concentration 5 micromolar; read-out: Pip4k2c Kd: IC50. How it is done: PIP4K2C binding constants disclosed herein were determined using the proprietary Human PIP4K2C binding assay (Catalog number 87-0007-1094, Eurofins DiscoverX, San Diego, CA). This assay measures active site-directed competition binding to an immobilized ligand (see https://doi.org/10.1038/nbt1068, herein incorporated by reference in its entirety). Experiments were conducted using an 11-point dose response curve, in duplicate, with a top starting concentration of 5 micromolar; the Levenberg-Marquardt algorithm was used to fit a Hill equation to dose-response data to calculate IC50 values (see Table 5).

Structures are written as SMILES.

On to `CC1CCCN(c2nc(Nc3cncc(N4CCCC4=O)c3)ncc2Cl)C1` (centres unmarked) [Compound 100, 1-(5-((5-chloro-4-(3-methylpiperidin-1-yl)pyrimidin-2-yl)amino)pyridin-3-yl)pyrrolidin-2-one], for which the IC50 was less than 500 nM.

`O=C1CCCN1c1cncc(Nc2ncc(Cl)c(-c3cccc(N4CCCC4)c3)n2)c1` [Compound 46, 1-(5-((5-chloro-4-(3-(pyrrolidin-1-yl)phenyl)pyrimidin-2-yl)amino)pyridin-3-yl)pyrrolidin-2-one]: the IC50 was less than 500 nM.

As to `O=C1CCCN1c1cncc(Nc2ncc(Cl)c(-c3cccc(C4CCNCC4)c3)n2)c1` [Compound 26, 1-(5-((5-chloro-4-(3-(piperidin-4-yl)phenyl)pyrimidin-2-yl)amino)pyridin-3-yl)pyrrolidin-2-one], the IC50 was less than 500 nM.

Consider `O=C1CCCN1c1cncc(Nc2ncc(Cl)c(N3Cc4ccccc4C3)n2)c1` [Compound 130, 1-(5-((5-chloro-4-(isoindolin-2-yl)pyrimidin-2-yl)amino)pyridin-3-yl)pyrrolidin-2-one], for which the IC50 was less than 500 nM.

For `O=C1CCCN1c1cncc(Nc2ncc(Cl)c(N3CCCC(C(F)(F)F)C3)n2)c1` (centres unmarked) [Compound 101, 1-(5-((5-chloro-4-(3-(trifluoromethyl)piperidin-1-yl)pyrimidin-2-yl)amino)pyridin-3-yl)pyrrolidin-2-one], the 50% inhibitory concentration (IC50) is less than 500 nM.

As for `CN1CCC(c2cccc(-c3nc(Nc4cncc(N5CCCC5=O)c4)ncc3Cl)c2)CC1` [Compound 27, 1-(5-((5-chloro-4-(3-(1-methylpiperidin-4-yl)phenyl)pyrimidin-2-yl)amino)pyridin-3-yl)pyrrolidin-2-one], the concentration for half-maximal inhibition (IC50) is less than 500 nM.

On to `O=C1CCCN1c1cncc(Nc2ncc(Cl)c(N3CCCCC3C(F)(F)F)n2)c1` (centres unmarked) [Compound 119, 1-(5-((5-chloro-4-(2-(trifluoromethyl)piperidin-1-yl)pyrimidin-2-yl)amino)pyridin-3-yl)pyrrolidin-2-one], for which the 50% inhibitory concentration (IC50) is less than 500 nM.

As for `O=C(c1ccc[nH]c1=O)N1CCCC(c2nc(Nc3cncc(N4CCCC4=O)c3)ncc2Cl)C1` (centres unmarked) [Compound 165, 3-(3-(5-chloro-2-((5-(2-oxopyrrolidin-1-yl)pyridin-3-yl)amino)pyrimidin-4-yl)piperidine-1-carbonyl)pyridin-2(1H)-one], the half-maximal inhibitory concentration (IC50) was less than 500 nM.

On to `O=C(c1ccc(=O)[nH]c1)N1CCCC(c2nc(Nc3cncc(N4CCCC4=O)c3)ncc2Cl)C1` (centres unmarked) [Compound 163, 5-[3-[5-chloro-2-[[5-(2-oxopyrrolidin-1-yl)-3-pyridyl]amino]pyrimidin-4-yl]piperidine-1-carbonyl]-1H-pyridin-2-one], for which the IC50 was less than 500 nM.

For `O=C1CCCN1c1cncc(Nc2ncc(Cl)c(N3C(=O)CC[C@@H]3c3ccccc3)n2)c1` [29, Enant B], the half-maximal inhibitory concentration (IC50) was in the range of 500 to 1000 nM.

As to `O=C1CCCN1c1cncc(Nc2ncc(Cl)c(N3CCCCC3)n2)c1` [Compound 96, 1-(5-((5-chloro-4-(piperidin-1-yl)pyrimidin-2-yl)amino)pyridin-3-yl)pyrrolidin-2-one], the 50% inhibitory concentration (IC50) was less than 500 nM.

For the molecule `Cc1cc(-c2ccccc2)cc(-c2nc(Nc3cncc(N4CCCC4=O)c3)ncc2Cl)c1` [Compound 11, 1-(5-((5-chloro-4-(5-methyl-[1,1′-biphenyl]-3-yl)pyrimidin-2-yl)amino)pyridin-3-yl)pyrrolidin-2-one], the IC50 is less than 500 nM.

`O=C(c1cc[nH]c(=O)c1)N1CCCC(c2nc(Nc3cncc(N4CCCC4=O)c3)ncc2Cl)C1` (centres unmarked) [Compound 164, 4-(3-(5-chloro-2-((5-(2-oxopyrrolidin-1-yl)pyridin-3-yl)amino)pyrimidin-4-yl)piperidine-1-carbonyl)pyridin-2(1H)-one]: the half-inhibitory concentration (IC50) is less than 500 nM.

`O=C1CCCN1c1cncc(Nc2ncc(Cl)c(N3CCCC(C4CCC4)C3)n2)c1` (centres unmarked) [Compound 123, 1-(5-((5-chloro-4-(3-cyclobutylpiperidin-1-yl)pyrimidin-2-yl)amino)pyridin-3-yl)pyrrolidin-2-one]: the IC50 is less than 500 nM.
